Test results taken from ChEMBL document CHEMBL4011590, “Structure-activity relationship studies on 3,5-dinitrophenyl tetrazoles as antitubercular agents” (Eur J Med Chem, 2017).

How the values were obtained:
[1] = test system: Trichophyton mentagrophytes; experiment: Antifungal activity against Trichophyton mentagrophytes 445 after 120 hrs by broth microdilution method; assay type: functional; conditions: Trichophyton mentagrophytes, 445, 120 h
Mycobacterium kansasii [2] = experiment: Antimycobacterial activity against Mycobacterium kansasii CNCTC My 235/80 after 7 days by micromethod; assay type: functional; conditions: CNCTC My 235/80, 168 h
Staphylococcus aureus [3] = experiment: Antibacterial activity against Staphylococcus aureus ATCC 6538 after 48 hrs by broth microdilution method; assay type: functional; conditions: ATCC 6538, 48 h
Staphylococcus aureus [4] = experiment: Antibacterial activity against methicillin-resistant Staphylococcus aureus HK5996/08 after 24 hrs by broth microdilution method; assay type: functional; conditions: HK5996/08, 24 h
Mycobacterium kansasii [5] = experiment: Antimycobacterial activity against Mycobacterium kansasii CNCTC My 235/80 after 14 days by micromethod; assay type: functional; conditions: CNCTC My 235/80, 336 h
[6] = test system: Staphylococcus epidermidis; experiment: Antibacterial activity against Staphylococcus epidermidis HK6966/08 after 48 hrs by broth microdilution method; assay type: functional; conditions: HK6966/08, 48 h
Lichtheimia corymbifera [7] = experiment: Antifungal activity against Absidia corymbifera 272 after 48 hrs by broth microdilution method; assay type: functional; conditions: Lichtheimia corymbifera, 272, 48 h
Candida albicans [8] = experiment: Antifungal activity against Candida albicans ATCC 44859 after 48 hrs by broth microdilution method; assay type: functional; conditions: ATCC 44859, 48 h
[9] = test system: Mycobacterium tuberculosis; experiment: Antimycobacterial activity against Mycobacterium tuberculosis H37Rv CNCTC My 331/88 after 21 days by micromethod; assay type: functional; conditions: H37Rv CNCTC My 331/88, 504 h
Mycobacterium avium [10] = experiment: Antimycobacterial activity against Mycobacterium avium CNCTC My 330/80 after 14 days by micromethod; assay type: functional; conditions: CNCTC My 330/80, 336 h
Aspergillus fumigatus [11] = experiment: Antifungal activity against Aspergillus fumigatus 231 after 24 hrs by broth microdilution method; assay type: functional; conditions: Aspergillus fumigatus, 231, 24 h
Candida albicans [12] = experiment: Antifungal activity against Candida albicans ATCC 44859 after 24 hrs by broth microdilution method; assay type: functional; conditions: ATCC 44859, 24 h
Candida tropicalis [13] = experiment: Antifungal activity against Candida tropicalis 156 after 48 hrs by broth microdilution method; assay type: functional; conditions: Candida tropicalis, 156, 48 h
Staphylococcus aureus [14] = experiment: Antibacterial activity against methicillin-resistant Staphylococcus aureus HK5996/08 after 48 hrs by broth microdilution method; assay type: functional; conditions: HK5996/08, 48 h
Klebsiella pneumoniae [15] = experiment: Antibacterial activity against Klebsiella pneumoniae HK11750/08 after 48 hrs by broth microdilution method; assay type: functional; conditions: HK11750/08, 48 h
Klebsiella pneumoniae [16] = experiment: Antibacterial activity against extended spectrum beta-lactamase producing Klebsiella pneumoniae HK14368/08 after 48 hrs by broth microdilution method; assay type: functional; conditions: HK14368/08, 48 h
Pseudomonas aeruginosa [17] = experiment: Antibacterial activity against Pseudomonas aeruginosa ATCC 9027 after 48 hrs by broth microdilution method; assay type: functional; conditions: ATCC 9027, 48 h
Enterococcus sp. [18] = experiment: Antibacterial activity against Enterococcus sp. HK14365/08 after 48 hrs by broth microdilution method; assay type: functional; conditions: HK14365/08, 48 h
Nakaseomyces glabratus [19] = experiment: Antifungal activity against Candida glabrata 20/I after 24 hrs by broth microdilution method; assay type: functional
Pichia kudriavzevii [20] = experiment: Antifungal activity against Candida krusei E28 after 48 hrs by broth microdilution method; assay type: functional; conditions: E28, 48 h
Mycobacterium kansasii [21] = experiment: Antimycobacterial activity against Mycobacterium kansasii isolate 6509/96 after 7 days by micromethod; assay type: functional; conditions: isolate 6509/96, 168 h
Mycobacterium avium [22] = experiment: Antimycobacterial activity against Mycobacterium avium CNCTC My 330/80 after 21 days by micromethod; assay type: functional; conditions: CNCTC My 330/80, 504 h
Pichia kudriavzevii [23] = experiment: Antifungal activity against Candida krusei E28 after 24 hrs by broth microdilution method; assay type: functional; conditions: E28, 24 h
Mycobacterium kansasii [24] = experiment: Antimycobacterial activity against Mycobacterium kansasii isolate 6509/96 after 14 days by micromethod; assay type: functional; conditions: isolate 6509/96, 336 h
Nakaseomyces glabratus [25] = experiment: Antifungal activity against Candida glabrata 20/I after 48 hrs by broth microdilution method; assay type: functional
Trichosporon asahii [26] = experiment: Antifungal activity against Trichosporon asahii 1188 after 24 hrs by broth microdilution method; assay type: functional; conditions: Trichosporon asahii, 1188, 24 h
Candida tropicalis [27] = experiment: Antifungal activity against Candida tropicalis 156 after 24 hrs by broth microdilution method; assay type: functional; conditions: Candida tropicalis, 156, 24 h
Mycobacterium kansasii [28] = experiment: Antimycobacterial activity against Mycobacterium kansasii isolate 6509/96 after 21 days by micromethod; assay type: functional; conditions: isolate 6509/96, 504 h
Lichtheimia corymbifera [29] = experiment: Antifungal activity against Absidia corymbifera 272 after 24 hrs by broth microdilution method; assay type: functional; conditions: Lichtheimia corymbifera, 272, 24 h
Trichosporon asahii [30] = experiment: Antifungal activity against Trichosporon asahii 1188 after 48 hrs by broth microdilution method; assay type: functional; conditions: Trichosporon asahii, 1188, 48 h
Escherichia coli [31] = experiment: Antibacterial activity against Escherichia coli ATCC 8739 after 24 hrs by broth microdilution method; assay type: functional; conditions: ATCC 8739, 24 h
Aspergillus fumigatus [32] = experiment: Antifungal activity against Aspergillus fumigatus 231 after 48 hrs by broth microdilution method; assay type: functional; conditions: Aspergillus fumigatus, 231, 48 h
Mycobacterium kansasii [33] = experiment: Antimycobacterial activity against Mycobacterium kansasii CNCTC My 235/80 after 21 days by micromethod; assay type: functional; conditions: CNCTC My 235/80, 504 h
Escherichia coli [34] = experiment: Antibacterial activity against Escherichia coli ATCC 8739 after 48 hrs by broth microdilution method; assay type: functional; conditions: ATCC 8739, 48 h
[35] = test system: Mycobacterium tuberculosis; experiment: Antimycobacterial activity against Mycobacterium tuberculosis H37Rv CNCTC My 331/88 after 14 days by micromethod; assay type: functional; conditions: H37Rv CNCTC My 331/88, 336 h
[36] = test system: Staphylococcus epidermidis; experiment: Antibacterial activity against Staphylococcus epidermidis HK6966/08 after 24 hrs by broth microdilution method; assay type: functional; conditions: HK6966/08, 24 h
Staphylococcus aureus [37] = experiment: Antibacterial activity against Staphylococcus aureus ATCC 6538 after 24 hrs by broth microdilution method; assay type: functional; conditions: ATCC 6538, 24 h
Pseudomonas aeruginosa [38] = experiment: Antibacterial activity against Pseudomonas aeruginosa ATCC 9027 after 24 hrs by broth microdilution method; assay type: functional; conditions: ATCC 9027, 24 h
Enterococcus sp. [39] = experiment: Antibacterial activity against Enterococcus sp. HK14365/08 after 24 hrs by broth microdilution method; assay type: functional; conditions: HK14365/08, 24 h
CHO-K1 = experiment: Cytotoxicity against CHOK1 cells after 24 hrs by MTT assay; assay type: cell-based; conditions: Cricetulus griseus, CHO-K1, 24 h
Klebsiella pneumoniae [40] = experiment: Antibacterial activity against extended spectrum beta-lactamase producing Klebsiella pneumoniae HK14368/08 after 24 hrs by broth microdilution method; assay type: functional; conditions: HK14368/08, 24 h
[41] = test system: Trichophyton mentagrophytes; experiment: Antifungal activity against Trichophyton mentagrophytes 445 after 72 hrs by broth microdilution method; assay type: functional; conditions: Trichophyton mentagrophytes, 445, 72 h
Klebsiella pneumoniae [42] = experiment: Antibacterial activity against Klebsiella pneumoniae HK11750/08 after 24 hrs by broth microdilution method; assay type: functional; conditions: HK11750/08, 24 h

Cc1ccc(Cn2nnnc2-c2cc([N+](=O)[O-])cc([N+](=O)[O-])c2)cc1
16 µM: MIC99 (Mycobacterium avium [22])
500 µM: MIC (Klebsiella pneumoniae [15]) | MIC (Klebsiella pneumoniae [16]) | MIC (Escherichia coli [31]) | MIC (Escherichia coli [34]) | MIC (Klebsiella pneumoniae [40]) | MIC (Klebsiella pneumoniae [42])
> 500 µM: MIC [1] | MIC (Lichtheimia corymbifera [7]) | MIC (Candida albicans [8]) | MIC (Aspergillus fumigatus [11]) | MIC (Candida albicans [12]) | MIC (Candida tropicalis [13]) | MIC (Pseudomonas aeruginosa [17]) | MIC (Nakaseomyces glabratus [19]) | MIC (Pichia kudriavzevii [20]) | MIC (Pichia kudriavzevii [23]) | MIC (Nakaseomyces glabratus [25]) | MIC (Trichosporon asahii [26]) | MIC (Candida tropicalis [27]) | MIC (Lichtheimia corymbifera [29]) | MIC (Trichosporon asahii [30]) | MIC (Aspergillus fumigatus [32]) | MIC (Pseudomonas aeruginosa [38]) | MIC [41]
8 µM: MIC99 (Mycobacterium avium [10])
2 µM: MIC99 (Mycobacterium kansasii [5]) | MIC99 [9] | MIC99 (Mycobacterium kansasii [21])
28 µM: IC50 (CHO-K1)
125 µM: MIC (Staphylococcus aureus [3]) | MIC (Staphylococcus aureus [4]) | MIC (Staphylococcus aureus [14]) | MIC (Staphylococcus aureus [37])
4 µM: MIC99 (Mycobacterium kansasii [24]) | MIC99 (Mycobacterium kansasii [28]) | MIC99 (Mycobacterium kansasii [33])
250 µM: MIC [6] | MIC (Enterococcus sp. [18]) | MIC [36] | MIC (Enterococcus sp. [39])
1 µM: MIC99 (Mycobacterium kansasii [2]) | MIC99 [35]

O=[N+]([O-])c1cc(-c2nnn(CSc3nnnn3-c3ccc(Cl)c(Cl)c3)n2)cc([N+](=O)[O-])c1
8 µM: MIC99 (Mycobacterium avium [22])
4 µM: MIC99 (Mycobacterium avium [10])
0.06 µM: MIC99 (Mycobacterium kansasii [2]) | MIC99 (Mycobacterium kansasii [24]) | MIC99 (Mycobacterium kansasii [28])
0.03 µM: MIC99 [9] | MIC99 (Mycobacterium kansasii [21]) | MIC99 [35]
0.125 µM: MIC99 (Mycobacterium kansasii [5])
125 µM: MIC99 (Mycobacterium kansasii [33])
8.7 µM: IC50 (CHO-K1)
> 125 µM: MIC [1] | MIC (Staphylococcus aureus [3]) | MIC (Staphylococcus aureus [4]) | MIC [6] | MIC (Lichtheimia corymbifera [7]) | MIC (Candida albicans [8]) | MIC (Aspergillus fumigatus [11]) | MIC (Candida albicans [12]) | MIC (Candida tropicalis [13]) | MIC (Staphylococcus aureus [14]) | MIC (Klebsiella pneumoniae [15]) | MIC (Klebsiella pneumoniae [16]) | MIC (Pseudomonas aeruginosa [17]) | MIC (Enterococcus sp. [18]) | MIC (Nakaseomyces glabratus [19]) | MIC (Pichia kudriavzevii [20]) | MIC (Pichia kudriavzevii [23]) | MIC (Nakaseomyces glabratus [25]) | MIC (Trichosporon asahii [26]) | MIC (Candida tropicalis [27]) | MIC (Lichtheimia corymbifera [29]) | MIC (Trichosporon asahii [30]) | MIC (Escherichia coli [31]) | MIC (Aspergillus fumigatus [32]) | MIC (Escherichia coli [34]) | MIC [36] | MIC (Staphylococcus aureus [37]) | MIC (Pseudomonas aeruginosa [38]) | MIC (Enterococcus sp. [39]) | MIC (Klebsiella pneumoniae [40]) | MIC [41] | MIC (Klebsiella pneumoniae [42])

O=[N+]([O-])c1cc(-c2nnn(Cc3ccccc3F)n2)cc([N+](=O)[O-])c1
> 200 µM: IC50 (CHO-K1)
0.5 µM: MIC99 (Mycobacterium kansasii [2]) | MIC99 [9] | MIC99 [35]
250 µM: MIC [6] | MIC [36]
1 µM: MIC99 (Mycobacterium kansasii [5]) | MIC99 (Mycobacterium kansasii [21]) | MIC99 (Mycobacterium kansasii [24])
500 µM: MIC (Staphylococcus aureus [3]) | MIC (Staphylococcus aureus [4]) | MIC (Staphylococcus aureus [14]) | MIC (Staphylococcus aureus [37])
8 µM: MIC99 (Mycobacterium avium [10])
2 µM: MIC99 (Mycobacterium kansasii [28]) | MIC99 (Mycobacterium kansasii [33])
16 µM: MIC99 (Mycobacterium avium [22])
> 500 µM: MIC [1] | MIC (Lichtheimia corymbifera [7]) | MIC (Candida albicans [8]) | MIC (Aspergillus fumigatus [11]) | MIC (Candida albicans [12]) | MIC (Candida tropicalis [13]) | MIC (Klebsiella pneumoniae [15]) | MIC (Klebsiella pneumoniae [16]) | MIC (Pseudomonas aeruginosa [17]) | MIC (Enterococcus sp. [18]) | MIC (Nakaseomyces glabratus [19]) | MIC (Pichia kudriavzevii [20]) | MIC (Pichia kudriavzevii [23]) | MIC (Nakaseomyces glabratus [25]) | MIC (Trichosporon asahii [26]) | MIC (Candida tropicalis [27]) | MIC (Lichtheimia corymbifera [29]) | MIC (Trichosporon asahii [30]) | MIC (Escherichia coli [31]) | MIC (Aspergillus fumigatus [32]) | MIC (Escherichia coli [34]) | MIC (Pseudomonas aeruginosa [38]) | MIC (Enterococcus sp. [39]) | MIC (Klebsiella pneumoniae [40]) | MIC [41] | MIC (Klebsiella pneumoniae [42])
